Key:
Assay in all cases: Bliss excess, mean over the matrix (fraction); higher = more synergy
[1] = tested on: KU-19-19 (Bladder Carcinoma)
Method in brief: (§1)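 After 24 hours at 37°C and 5% CO2 in 1536-well plates, cells in DMEM/F12 or RPMI plus 10% FBS received two-drug dose matrices for 72 hours. Viability came from CellTiter-Glo 2.0 luminescence and was scaled as inhibition, anchored at 0 by vehicle wells and at 1 by blank wells. Combination Emax is taken as the second-highest inhibition in the matrix, and Bliss excess as the observed combination effect less EA + EB − EA·EB, with EA and EB the single-agent effects.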

[2] = tested on: EW-3 (Ewing's Sarcoma)
Method in brief: as §1

[3] = tested on: EW-13 (Ewing's Sarcoma)
Method in brief: as §1

[4] = tested on: IMR-5 (Neuroblastoma)
Method in brief: as §1

[5] = tested on: A704 (Kidney Carcinoma)
Method in brief: as §1

[6] = tested on: SCC-9 (Oral Cavity Carcinoma)
Method in brief: as §1

[7] = tested on: KP-2 (Pancreatic Carcinoma)
Method in brief: as §1

[8] = tested on: NCI-H1573 (Lung Adenocarcinoma)
Method in brief: as §1

[9] = tested on: HC-1 (Other Blood Carcinomas)
Method in brief: as §1

[10] = tested on: DG-75 (Burkitt's Lymphoma)
Method in brief: as §1

[11] = tested on: OCUB-M (Breast Carcinoma)
Method in brief: as §1

[12] = tested on: VMRC-LCD (Lung Adenocarcinoma)
Method in brief: as §1

[13] = tested on: NCI-H2405 (Lung Adenocarcinoma)
Method in brief: as §1

[14] = tested on: GOTO (Neuroblastoma)
Method in brief: as §1

Compound	Bliss excess [1]	Bliss excess [2]	Bliss excess [3]	Bliss excess [4]	Bliss excess [5]	Bliss excess [6]	Bliss excess [7]	Bliss excess [8]	Bliss excess [9]	Bliss excess [10]	Bliss excess [11]	Bliss excess [12]	Bliss excess [13]	Bliss excess [14]
C=CCn1c(=O)c2cnc(Nc3ccc(N4CCN(C)CC4)cc3)nc2n1-c1cccc(C(C)(C)O)n1 [AZD1775] + C[C@@H]1COCCN1C2=NC(=NC(=C2)C3(CC3)[S@](=N)(=O)C)C4=C5C=CNC5=NC=C4 [AZD6738] (first compound max 1 µM, partner max 10 µM)	-0.0113	-0.131	0.0217	0.085	-0.0022	-0.0425	0.0329	0.0215	-0.017	0.0482	0.0642	0.0369	-0.0039	-0.0186
CC(=O)c1c(C)c2cnc(Nc3ccc(N4CCNCC4)cn3)nc2n(C2CCCC2)c1=O [Palbociclib] + CC1(C)CCC(CN2CCN(c3ccc(C(=O)NS(=O)(=O)c4ccc(NCC5CCOCC5)c([N+](=O)[O-])c4)c(Oc4cnc5[nH]ccc5c4)c3)CC2)=C(c2ccc(Cl)cc2)C1 [Venetoclax] (first compound max 10 µM, 7x7, partner max 1 µM)	-0.0135	0.0792	-0.0311	0.0953	-0.0575	-0.051	-0.0425	0.0244	0.0552	-0.0084	-0.0276	-0.0377	-0.0521	-0.0317
COc1nnc2ccc(N3CCC(c4ccc(OCCN5CCN(C)C(=O)[C@H]5C)cc4)CC3)nn12 [AZD5153] + Cn1cnc2c(F)c(Nc3ccc(Br)cc3Cl)c(C(=O)NOCCO)cc21 [Selumetinib] (first compound max 1 µM, 7x7, partner max 10 µM)	-0.0007	-0.0625	-0.0577	-0.0047	-0.0077	0.042	-0.0001	0.0491	-0.105	-0.0177	-0.0036	-0.0401	-0.0297	-0.0522
NC1(C(=O)N[C@@H](CCO)c2ccc(Cl)cc2)CCN(c2ncnc3[nH]ccc23)CC1 [Capivasertib] + CC(C)n1c(=O)n(C)c2cnc3cc(F)c(-c4ccc(OCCCN5CCCCC5)nc4)cc3c21 [AZD1390] (first compound max 10 µM, 7x7, partner max 0.3 µM)	-0.0939	-0.0908	-0.024	-0.0487	-0.0703	-0.027	-0.0612	-0.111	-0.0706	-0.0006	-0.0424	-0.0297	-0.0513	-0.0465
NC1(C(=O)N[C@@H](CCO)c2ccc(Cl)cc2)CCN(c2ncnc3[nH]ccc23)CC1 [Capivasertib] + C[C@@H]1COCCN1C2=NC(=NC(=C2)C3(CC3)[S@](=N)(=O)C)C4=C5C=CNC5=NC=C4 [AZD6738] (first compound max 10 µM, 7x7, partner max 10 µM)	-0.0748	-0.0457	0.0091	0.019	-0.0571	-0.0111	-0.0279	-0.0522	-0.0166	-0.0138	-0.0241	-0.0185	-0.0513	-0.0379
COc1cccc(OCCCN)c1-c1cc(Nc2cnc(C#N)cn2)n[nH]1 [Prexasertib] + C=CCn1c(=O)c2cnc(Nc3ccc(N4CCN(C)CC4)cc3)nc2n1-c1cccc(C(C)(C)O)n1 [AZD1775] (first compound max 1 µM, partner max 1 µM)	0.0222	0.0286	0.0788	0.12	0.018	0.0249	0.112	0.108	0.0149	0.0708	0.232	-0.0072	0.032	0.0074
CN(C)CCCOc1ccc(-c2ccc3ncc4c(c3c2)n(C2CCOCC2)c(=O)n4C)cn1 [AZD0156] + CCN(CCO)CCCOc1ccc2c(Nc3cc(CC(=O)Nc4cccc(F)c4)[nH]n3)ncnc2c1 [AZD2811] (first compound max 1 µM, 7x7, partner max 1 µM)	0.0358	-0.0458	0.009	-0.0257	-0.039	-0.014	-0.0086	-0.0157	-0.008	0.057	-0.0736	-0.0476	-0.0241	0.129

Reference: the supplement of paper PMC11061612
